Laboratory results: PMC9907720 (Antiviral research, 2022)
Read-outs that look alike come from different tables or passages of the source.

Experiments:
CMV IE1 protein = assay: Western blot of IE1 protein in AD169^R-infected NHDFs; format: cell-based, Human cytomegalovirus; details: AD169^R-infected NHDF, 24hpi; MBX-4992 1-10 μM, ganciclovir 5 μM, convallotoxin 0.01 μM
MCMV Smith = assay: Herpes virus panel, MCMV qPCR; format: cell-based, Murine cytomegalovirus; details: MEF
influenza A H1N1 = assay: Other viral pathogens, influenza A H1N1; format: cell-based; details: data not shown
Akata = Akata cells, EBV assay
respiratory syncytial = assay: Other viral pathogens, respiratory syncytial virus; format: cell-based; details: data not shown
BCBL-1 = BCBL-1 cells, HHV-8 assay
hepatitis B = assay: Other viral pathogens, hepatitis B; format: cell-based; details: data not shown
HCMV GDGr K17 (GCV^R) = format: cell-based, Human cytomegalovirus; details: HFF, CPE
HHV-8 BCBL-1 = assay: Herpes virus panel, HHV-8 qPCR; format: cell-based, Human herpes virus 8; details: HHV-8 BCBL-1, BCBL-1 cells
AD169^R [1] = assay: Cell pre-treatment wash / no wash infection assay; format: cell-based, Human cytomegalovirus; details: cells pre-treated, AD169^R 30 mins at 4°C; MBX-4992 10μM, heparin 50μg/ml; 24hpi
GP Lung = GP Lung cells, GpCMV assay
[2] = tested on: AD169^R and TB40/E strains; assay: Infectivity assay, AD169^R and TB40/E in NHDF and ARPE-19; format: cell-based, Human cytomegalovirus; details: read-out: IC50 values (range), NHDF and ARPE-19 cells, 24hpi
MEF = details: MCMV assay
MOLT-3 = details: MOLT-3, HHV-6B assay
AD169^R [3] = assay: Virus pre-incubation wash / no wash infection assay; format: cell-based, Human cytomegalovirus; details: MBX-4992 pre-incubated with virus, 24hpi
VZV Ellen = assay: Herpes virus panel, VZV CPE; format: cell-based, Varicella-Zoster virus; details: HFF
GpCMV 22122 = assay: Herpes virus panel, GpCMV qPCR; format: cell-based, Guinea pig cytomegalovirus; details: GpCMV 22122, GP Lung cells
EBV Akata = assay: Herpes virus panel, EBV qPCR; format: cell-based, Epstein-Barr virus; details: Akata cells
dengue = assay: Other viral pathogens, dengue; format: cell-based; details: data not shown
HSV-2 G = assay: Herpes virus panel, HSV-2 CPE; format: cell-based, Herpes simplex virus 2; details: HFF
Zika virus = assay: Other viral pathogens, Zika virus; format: cell-based; details: data not shown
yellow fever = format: cell-based
HSV-1 E-377 = assay: Herpes virus panel, HSV-1 CPE; format: cell-based, Herpes simplex virus 1; details: HSV-1 E-377, HFF
HCMV AD169 = assay: Herpes virus panel, HCMV AD169 CPE; format: cell-based, Human cytomegalovirus; details: HCMV AD169, HFF
HHV-6B Z29 = assay: Herpes virus panel, HHV-6B qPCR; format: cell-based, Human herpes virus 6B; details: HHV-6B Z29, MOLT-3, qPCR
AD169^R [4] = assay: Infectivity assay, AD169^R infection of NHDF; format: cell-based, Human cytomegalovirus; details: AD169^R-infected NHDF, 24hpi
TB40/E [5] = assay: Infectivity assay, TB40/E infection of NHDF; format: cell-based, Human cytomegalovirus; details: TB40/E-infected NHDF, 24hpi
TB40/E [6] = assay: Infectivity assay, TB40/E infection of ARPE-19; format: cell-based, Human cytomegalovirus; details: TB40/E-infected ARPE-19, 24hpi
AD169^R [7] = assay: Infectivity assay, AD169^R infection of ARPE-19; format: cell-based, Human cytomegalovirus; details: AD169^R-infected ARPE-19, 24hpi
AD169^IE2-YFP = assay: High-content screening / dose response assay, AD169^IE2-YFP infection of HFF; format: cell-based, Human cytomegalovirus; details: read-out: anti-CMV activity IC50, secondary validation assays

## Nc1nc(O)c2ncn(COC(CO)CO)c2n1 [GCV, ganciclovir]
CMV IE1 protein
  IE1 expression (Western blot): did not impact IE1 expression

## Cc1nc(Nc2ccc(NC(=O)c3ccco3)cc2)cc(N2CCCC2)n1 [MBX-4992]
MCMV Smith
  IC50: 4.5 µM
Influenza A H1N1
  antiviral activity: did not exhibit activity
Akata
  CC50: > 100 µM
Respiratory syncytial
  antiviral activity: did not exhibit activity
BCBL-1
  CC50: > 100 µM
Hepatitis B
  antiviral activity: did not exhibit activity
HCMV GDGr K17 (GCV^R)
  IC50: 1.8 µM
HHV-8 BCBL-1
  IC50: 10 µM
AD169^R [1]
  virus infection, compound present during infection: significantly inhibited virus during infection
GP Lung
  CC50: 119 µM
[2]
  IC50: 1.9 to 4.8 µM
MEF
  CC50: > 150 µM
MOLT-3
  CC50: > 100 µM
AD169^R [3]
  decrease of virus infection, virus pre-incubated then washed: ~ 25%
VZV Ellen
  IC50: > 30 µM
GpCMV 22122
  IC50: > 30 µM
CMV IE1 protein
  IE1 expression (Western blot): decrease in IE1 expression
EBV Akata
  IC50: 30.9 µM
dengue
  antiviral activity: did not exhibit activity
HSV-2 G
  IC50: > 150 µM
Zika virus
  antiviral activity: did not exhibit activity
HFF; HCMV AD169 assay
  CC50: > 150 µM
HFF; HSV-1 assay
  CC50: 60.6 µM
HFF; HSV-2 assay
  CC50: > 150 µM
HFF; VZV assay
  CC50: 139 µM
Yellow fever
  antiviral activity: did not exhibit activity
HSV-1 E-377
  IC50: > 30 µM
HCMV AD169
  IC50: 1.7 µM
HHV-6B Z29
  IC50: 43.7 µM

## Cc1nc(Nc2ccc(NC(=O)c3ccco3)cc2)cc(-n2cccn2)n1 [MBXC-4302]
AD169^R [4]
  IC50: 3 µM
TB40/E [5]
  IC50: ~4.5 µM
TB40/E [6]
  IC50: ~4.5 µM
AD169^R [7]
  IC50: 5.8 µM
AD169^IE2-YFP
  IC50: 3.2 µM

## C[C@@H]1O[C@@H](O[C@H]2CC[C@]3(C=O)[C@H]4CC[C@]5(C)[C@@H](C6=CC(=O)OC6)CC[C@]5(O)[C@@H]4CC[C@]3(O)C2)[C@H](O)[C@H](O)[C@H]1O [convallatoxin]
CMV IE1 protein
  IE1 expression (Western blot): inhibited IE1 expression

## heparin [reference compound]
AD169^R [1]
  virus infection, compound present during infection: significantly inhibited virus during infection
